The subject of assay [1] is IL-17A-induced G-CSF production in human normal keratinocyte (NHK). In words: NHK Assay: IL-17A-induced G-CSF production in human normal keratinocytes. The conditions noted are these: Homo sapiens, Keratinocyte, 24 h, adult normal human keratinocytes, IL-17A 5 ng/mL, simple average if tested more than once. Format: cell-based. Put shortly:
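IL-17A (5 ng/mL final) was pre-incubated 1 h at rt with titrated compound and then added to adult normal human keratinocytes (5% FBS, 0.2% DMSO) for 24 h at 37° C. Supernatant G-CSF was measured by HTRF against a standard curve to derive IC50. Viability was checked by CellTiter-Glo.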

The target in assay [2] is IL-17A(FLAG-Tagged): IL-17RA(His-Tagged) (Homo sapiens, UniProt Q16552, K93Q). In words: IL-17A(FLAG-Tagged): IL-17RA(His-Tagged) Binding Disruption Eu-HTRF Assay. The conditions noted are these: IL-17A/IL-17RA binding disruption, simple average if tested more than once. Put shortly:
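IC50 comes from a one-site competition fit of the HTRF 665/620 nm ratio. Compound dilutions (2-fold, 22 points) were held 1 h rt with FLAG-tagged IL-17A dimer, then His-tagged IL-17RA plus Eu-cryptate anti-FLAG and D2 anti-His antibodies were added for 2 h rt.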
(In general: Time-resolved FRET reads energy transfer from a long-lived donor to a nearby acceptor.)

By IC50 is commonly meant the concentration at which inhibition is half-maximal.

Molecules are shown by their SMILES.

Chain of UniProt Q16552 (Q16552 with tags, fused parts or gaps K93Q): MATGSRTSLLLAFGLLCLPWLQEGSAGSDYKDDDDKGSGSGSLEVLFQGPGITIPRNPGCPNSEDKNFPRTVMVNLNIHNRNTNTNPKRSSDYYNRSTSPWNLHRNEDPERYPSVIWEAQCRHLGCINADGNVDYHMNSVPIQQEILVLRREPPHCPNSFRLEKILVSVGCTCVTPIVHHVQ

On to `COc1ccnc(C(=O)N[C@H](c2cn3ncc([C@H](NC(=O)CCC(F)(F)F)C4CC4)cc3n2)C2CCC(F)(F)CC2)c1` [Example 196, N—((S)-(7-((R)-Cyclopropyl(4,4,4-trifluorobutanamido)methyl)imidazo[1,2-b]pyridazin-2-yl)(4,4-difluorocyclohexyl)methyl)-4-methoxypicolinamide], for which the IC50 in assay [1] came out at 1.7 µM; in assay [2], 0.48 µM.
As to `O=C(CCC(F)(F)F)N[C@@H](c1cnn2cc([C@@H](NC(=O)c3cc(OCC(F)F)ccn3)C3CCC(F)(F)CC3)nc2c1)C1CC1` [Example 197, N—((S)-(7-((R)-Cyclopropyl(4,4,4-trifluorobutanamido)methyl)imidazo[1,2-b]pyridazin-2-yl)(4,4-difluorocyclohexyl)methyl)-4-(2,2-difluoroethoxy)picolinamide], the values for the IC50 in assay [1] and in assay [2] were 1.7 µM and 0.3 µM, respectively.
`O=C(CCC(F)(F)F)N[C@@H](c1cnn2cc([C@@H](NC(=O)c3cc(C(F)(F)F)ccn3)C3CCC(F)(F)CC3)nc2c1)C1CC1` [Example 198, N—((S)-(7-((R)-Cyclopropyl(4,4,4-trifluorobutanamido)methyl)imidazo[1,2-b]pyridazin-2-yl)(4,4-difluorocyclohexyl)methyl)-4-(trifluoromethyl)picolinamide]: the concentration for half-maximal inhibition (IC50) stood at 1.8 µM in assay [1] and 0.41 µM in assay [2].
Take `O=C(CCC(F)(F)F)N[C@@H](c1cnn2cc([C@@H](NC(=O)c3cc(C(F)F)ncn3)C3CCC(F)(F)CC3)nc2c1)C1CC1` [Example 199, N—((S)-(7-((R)-Cyclopropyl(4,4,4-trifluorobutanamido)methyl)imidazo[1,2-b]pyridazin-2-yl)(4,4-difluorocyclohexyl)methyl)-6-(difluoromethyl)pyrimidine-4-carboxamide]: the half-maximal inhibitory concentration (IC50) in assay [1] was 2 µM; in assay [2], 0.23 µM.
On to `Cc1ncccc1C(=O)N[C@H](c1cn2ncc([C@H](NC(=O)CCC(F)(F)F)C3CC3)cc2n1)C1CCC(F)(F)CC1` [Example 200, N—((S)-(7-((R)-Cyclopropyl(4,4,4-trifluorobutanamido)methyl)imidazo[1,2-b]pyridazin-2-yl)(4,4-difluorocyclohexyl)methyl)-2-methylnicotinamide], for which the IC50 is 2.2 µM in assay [1] and 0.76 µM in assay [2].
Regarding `O=C(CCC(F)(F)F)N[C@@H](c1cnn2cc([C@@H](NC(=O)c3cccc(OCC(F)F)n3)C3CCC(F)(F)CC3)nc2c1)C1CC1` [Example 201, N—((S)-(7-((R)-Cyclopropyl(4,4,4-trifluorobutanamido)methyl)imidazo[1,2-b]pyridazin-2-yl)(4,4-difluorocyclohexyl)methyl)-6-(2,2-difluoroethoxy)picolinamide], the IC50 in assay [1] was 2.2 µM; in assay [2] it was 0.47 µM.
For `O=C(CCC(F)(F)F)N[C@@H](c1cnn2cc([C@@H](NC(=O)c3cc(C(F)(F)F)ncn3)C3CCC(F)(F)CC3)nc2c1)C1CC1` [Example 202, N—((S)-(7-((R)-Cyclopropyl(4,4,4-trifluorobutanamido)methyl)imidazo[1,2-b]pyridazin-2-yl)(4,4-difluorocyclohexyl)methyl)-6-(trifluoromethyl)pyrimidine-4-carboxamide], the results for the IC50 in assay [1] and in assay [2] were 2.3 µM and 0.44 µM, respectively.
For `O=C(CCC(F)(F)F)N[C@@H](c1cnn2cc([C@@H](NC(=O)c3cccc(OCC(F)(F)F)n3)C3CCC(F)(F)CC3)nc2c1)C1CC1` [Example 203, N—((S)-(7-((R)-Cyclopropyl(4,4,4-trifluorobutanamido)methyl)imidazo[1,2-b]pyridazin-2-yl)(4,4-difluorocyclohexyl)methyl)-6-(2,2,2-trifluoroethoxy)picolinamide], in that order: 2.7 µM and 0.19 µM.
In the case of `O=C(CCC(F)(F)F)N[C@@H](c1cnn2cc([C@@H](NC(=O)c3cncnc3)C3CCC(F)(F)CC3)nc2c1)C1CC1` [Example 204, N—((S)-(7-((R)-Cyclopropyl(4,4,4-trifluorobutanamido)methyl)imidazo[1,2-b]pyridazin-2-1)(4,4-difluorocyclohexyl)methyl)pyrimidine-5-carboxamide], the values for the IC50 in assay [1] and in assay [2] were 3.3 µM and 0.32 µM, respectively.
For `CC(C)c1cccc(C(=O)N[C@H](c2cn3ncc([C@H](NC(=O)CCC(F)(F)F)C4CC4)cc3n2)C2CCC(F)(F)CC2)n1` [Example 205, N—((S)-(7-((R)-Cyclopropyl(4,4,4-trifluorobutanamido)methyl)imidazo[1,2-b]pyridazin-2-yl)(4,4-difluorocyclohexyl)methyl)-6-isopropylpicolinamide], in that order: 3.7 µM and 0.39 µM.
The corresponding values for `Cc1ccnc(C(=O)N[C@H](c2cn3ncc([C@H](NC(=O)CCC(F)(F)F)C4CC4)cc3n2)C2CCC(F)(F)CC2)c1` [Example 206, N—((S)-(7-((R)-Cyclopropyl(4,4,4-trifluorobutanamido)methyl)imidazo[1,2-b]pyridazin-2-yl)(4,4-difluorocyclohexyl)methyl)-4-methylpicolinamide] are 4 µM and 0.54 µM.
As for `O=C(CCC(F)(F)F)N[C@@H](c1cnn2cc([C@@H](NC(=O)c3ccncn3)C3CCC(F)(F)CC3)nc2c1)C1CC1` [Example 207, N—((S)-(7-((R)-Cyclopropyl(4,4,4-trifluorobutanamido)methyl)imidazo[1,2-b]pyridazin-2-yl)(4,4-difluorocyclohexyl)methyl)pyrimidine-4-carboxamide], the IC50 in assay [1] worked out at 8.4 µM; in assay [2] it was 1.8 µM.
For `N#Cc1ccccc1C(=O)N[C@H](c1cn2ncc([C@H](NC(=O)CCC(F)(F)F)C3CC3)cc2n1)C1CCC(F)(F)CC1` [Example 208, 2-Cyano-N—((S)-(7-((R)-cyclopropyl(4,4,4-trifluorobutanamido)methyl)imidazo[1,2-b]pyridazin-2-yl)(4,4-difluorocyclohexyl)methyl)benzamide], in that order: over 20 µM and 5.3 µM.
For `Cc1ccncc1C(=O)N[C@H](c1cn2ncc([C@H](NC(=O)CCC(F)(F)F)C3CC3)cc2n1)C1CCC(F)(F)CC1` [Example 209, N—((S)-(7-((R)-Cyclopropyl(4,4,4-trifluorobutanamido)methyl)imidazo[1,2-b]pyridazin-2-yl)(4,4-difluorocyclohexyl)methyl)-4-methylnicotinamide], in that order: over 20 µM and 1.4 µM.
The corresponding values for `O=C(CCC(F)(F)F)N[C@@H](c1cnn2cc([C@@H](NC(=O)c3cncc(C(F)(F)F)n3)C3CCC(F)(F)CC3)nc2c1)C1CC1` [Example 210, N—((S)-(7-((R)-Cyclopropyl(4,4,4-trifluorobutanamido)methyl)imidazo[1,2-b]pyridazin-2-yl)(4,4-difluorocyclohexyl)methyl)-6-(trifluoromethyl)pyrazine-2-carboxamide] are over 20 µM and 0.62 µM.
For the compound `COc1nccc(C(=O)N[C@H](c2cn3ncc([C@H](NC(=O)CCC(F)(F)F)C4CC4)cc3n2)C2CCC(F)(F)CC2)n1` [Example 211, N—((S)-(7-((R)-Cyclopropyl(4,4,4-trifluorobutanamido)methyl)imidazo[1,2-b]pyridazin-2-_yl)(4,4-difluorocyclohexyl)methyl)-2-methoxypyrimidine-4-carboxamide], the figures for the IC50 in assay [1] and in assay [2] were over 20 µM and 4.3 µM, respectively.
As for `Cc1ccnc(C(=O)N[C@H](c2cn3ncc([C@H](NC(=O)CCC(F)(F)F)C4CC4)cc3n2)C2CCC(F)(F)CC2)n1` [Example 212, N—((S)-(7-((R)-Cyclopropyl(4,4,4-trifluorobutanamido)methyl)imidazo[1,2-b]pyridazin-2-yl)(4,4-difluorocyclohexyl)methyl)-4-methylpyrimidine-2-carboxamide], the IC50 in assay [1] is over 20 µM; in assay [2] it was 13 µM.
The corresponding values for `N#Cc1ccc(C(=O)N[C@H](c2cn3ncc([C@H](NC(=O)CCC(F)(F)F)C4CC4)cc3n2)C2CCC(F)(F)CC2)cc1` [Example 213, 4-Cyano-N—((S)-(7-((R)-cyclopropyl(4,4,4-trifluorobutanamido)methyl)imidazo[1,2-b]pyridazin-2-yl)(4,4-difluorocyclohexyl)methyl)benzamide] are 20 µM and 0.45 µM.
Consider `Cc1cnccc1C(=O)N[C@H](c1cn2ncc([C@H](NC(=O)CCC(F)(F)F)C3CC3)cc2n1)C1CCC(F)(F)CC1` [Example 214, N—((S)-(7-((R)-Cyclopropyl(4,4,4-trifluorobutanamido)methyl)imidazo[1,2-b]pyridazin-2-yl)(4,4-difluorocyclohexyl)methyl)-3-methylisonicotinamide], for which the IC50 in assay [1] is over 20 µM; in assay [2], 2.9 µM.
Turning to `COc1cncc(C(=O)N[C@H](c2cn3ncc([C@H](NC(=O)CCC(F)(F)F)C4CC4)cc3n2)C2CCC(F)(F)CC2)n1` [Example 215, N—((S)-(7-((R)-Cyclopropyl(4,4,4-trifluorobutanamido)methyl)imidazo[1,2-b]pyridazin-2-yl)(4,4-difluorocyclohexyl)methyl)-6-methoxypyrazine-2-carboxamide], the IC50 is over 20 µM in assay [1] and 2 µM in assay [2].
Consider `O=C(CCC(F)(F)F)N[C@@H](c1cnn2cc([C@@H](NC(=O)c3ccnc(C4CC4)n3)C3CCC(F)(F)CC3)nc2c1)C1CC1` [Example 216, 2-Cyclopropyl-N—((S)-(7-((R)-cyclopropyl(4,4,4-trifluorobutanamido)methyl)imidazo[1,2-b]pyridazin-2-yl)(4,4-difluorocyclohexyl)methyl)pyrimidine-4-carboxamide], for which the IC50 was over 20 µM in assay [1] and 1.6 µM in assay [2].
